This assay concerns the target T1, SMARCA2 (Homo sapiens, UniProt P51531).
T1 construct: endogenous in cells
Kind of assay: SMARCA2 HiBiT degradation assay (cellular). Format: cell-based. To be noted: for Emax: A549, Emax = amount of residual protein remaining in the cell following compound treatment; for DC50: SMARCA2 HiBiT cells, luminescence readout, 11-point titration from 10 μM, 6 hours or 16 hours, read-out: HiBit A549 SMARCA2 IP. A general note: The HiBiT peptide binds its large partner to form an active luciferase.

Our source for the Emax and DC50 values is patent US20230002367A1, “BIFUNCTIONAL COMPOUNDS” (Hoffmann-La Roche Inc., priority 2019, published 2023).

What is called Emax is the size of the effect at its maximum, as opposed to the concentration needed.

T1 sequence (P51531 whole entry): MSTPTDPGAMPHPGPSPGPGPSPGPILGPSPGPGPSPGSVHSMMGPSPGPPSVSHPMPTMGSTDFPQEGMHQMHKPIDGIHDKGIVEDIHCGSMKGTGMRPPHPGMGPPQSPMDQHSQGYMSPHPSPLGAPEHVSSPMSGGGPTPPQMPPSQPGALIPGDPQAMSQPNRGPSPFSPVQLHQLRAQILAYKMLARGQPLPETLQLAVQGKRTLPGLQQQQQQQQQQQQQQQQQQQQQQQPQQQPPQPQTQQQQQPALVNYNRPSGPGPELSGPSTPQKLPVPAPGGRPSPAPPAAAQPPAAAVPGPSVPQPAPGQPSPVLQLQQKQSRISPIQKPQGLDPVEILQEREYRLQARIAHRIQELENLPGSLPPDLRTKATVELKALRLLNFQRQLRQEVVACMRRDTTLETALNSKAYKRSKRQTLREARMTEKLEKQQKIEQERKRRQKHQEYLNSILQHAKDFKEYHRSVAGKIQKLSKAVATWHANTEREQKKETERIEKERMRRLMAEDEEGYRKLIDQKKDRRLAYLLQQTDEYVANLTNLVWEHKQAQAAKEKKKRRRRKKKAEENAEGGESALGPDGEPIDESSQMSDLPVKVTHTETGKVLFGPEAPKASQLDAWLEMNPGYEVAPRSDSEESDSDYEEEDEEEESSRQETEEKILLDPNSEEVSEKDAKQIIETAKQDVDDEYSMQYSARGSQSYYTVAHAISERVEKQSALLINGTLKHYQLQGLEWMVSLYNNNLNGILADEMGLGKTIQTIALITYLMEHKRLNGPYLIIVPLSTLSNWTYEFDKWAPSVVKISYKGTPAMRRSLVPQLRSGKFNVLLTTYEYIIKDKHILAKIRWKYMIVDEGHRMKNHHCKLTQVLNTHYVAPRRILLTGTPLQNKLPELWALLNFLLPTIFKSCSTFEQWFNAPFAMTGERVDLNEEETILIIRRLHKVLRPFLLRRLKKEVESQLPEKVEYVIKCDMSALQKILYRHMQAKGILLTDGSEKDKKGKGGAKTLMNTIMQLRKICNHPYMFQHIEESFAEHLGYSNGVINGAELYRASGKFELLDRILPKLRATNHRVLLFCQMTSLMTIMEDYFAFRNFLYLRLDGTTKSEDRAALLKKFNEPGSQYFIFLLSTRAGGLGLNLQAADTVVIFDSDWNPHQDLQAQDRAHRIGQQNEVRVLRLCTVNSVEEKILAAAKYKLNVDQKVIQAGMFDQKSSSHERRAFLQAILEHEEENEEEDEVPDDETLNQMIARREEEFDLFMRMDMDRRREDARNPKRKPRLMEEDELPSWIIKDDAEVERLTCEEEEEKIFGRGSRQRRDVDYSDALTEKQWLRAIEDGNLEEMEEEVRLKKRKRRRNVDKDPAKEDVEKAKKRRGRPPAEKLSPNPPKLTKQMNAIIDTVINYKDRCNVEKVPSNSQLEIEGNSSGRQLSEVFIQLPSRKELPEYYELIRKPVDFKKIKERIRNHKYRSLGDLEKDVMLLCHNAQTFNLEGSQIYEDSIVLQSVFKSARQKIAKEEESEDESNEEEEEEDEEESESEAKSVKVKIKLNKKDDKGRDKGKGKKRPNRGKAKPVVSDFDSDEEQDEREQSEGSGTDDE

Take `Cc1ncsc1-c1ccc([C@H](C)NC(=O)[C@@H]2C[C@@H](O)CN2C(=O)[C@@H](NC(=O)CCCCCCNC(=O)C(c2ccccc2)n2cc(-c3cc(-c4ccccc4O)nnc3N)cn2)C(C)(C)C)cc1` (mixture of isomers) [Example 75, rac-(2S,4R)-4-hydroxy-1-[rac-(2S)-2-[7-[[2-[4-[3-amino-6-(2-hydroxyphenyl)pyridazin-4-yl]pyrazol-1-yl]-2-phenyl-acetyl]amino]heptanoylamino]-3,3-dimethyl-butanoyl]-N-[rac-(1S)-1-[4-(4-methylthiazol-5-yl)phenyl]ethyl]pyrrolidine-2-carboxamide]: the Emax was 26% and the DC50 came to 777 nM.
Taken in the same sequence, the figures for `Cc1ncsc1-c1ccc([C@H](C)NC(=O)[C@@H]2C[C@@H](O)CN2C(=O)[C@@H](NC(=O)CCCCCCCCC(=O)N2CCN(CCOc3cccc(N4CCCC(Oc5cc(-c6ccccc6O)nnc5N)C4)c3)CC2)C(C)(C)C)cc1` (mixture of isomers) [Example 71, rac-(2S,4R)-4-hydroxy-1-[rac-(2S)-2-[[10-[4-[2-[3-[3-[3-amino-6-(2-hydroxyphenyl)pyridazin-4-yl]oxy-1-piperidyl]phenoxy]ethyl]piperazin-1-yl]-10-oxo-decanoyl]amino]-3,3-dimethyl-butanoyl]-N-[rac-(1S)-1-[4-(4-methylthiazol-5-yl)phenyl]ethyl]pyrrolidine-2-carboxamide] were 38% and 522 nM.
In the case of `Cc1ncsc1-c1ccc(CNC(=O)[C@@H]2C[C@@H](O)CN2C(=O)[C@@H](NC(=O)CCCCCCCCC(=O)N2CCN(c3cc(-c4ccccc4O)nnc3N)CC2C)C(C)(C)C)cc1` (stereo partly drawn) [Example 4, (2S,4R)-1-[(2S)-2-[[10-[4-[3-amino-6-(2-hydroxyphenyl)pyridazin-4-yl]-2-methyl-piperazin-1-yl]-10-oxo-decanoyl]amino]-3,3-dimethyl-butanoyl]-4-hydroxy-N-[[4-(4-methylthiazol-5-yl)phenyl]methyl]pyrrolidine-2-carboxamide], the Emax was determined as 36% and the DC50 was 2930 nM.
Take `Cc1ncsc1-c1ccc(CNC(=O)[C@@H]2C[C@@H](O)CN2C(=O)[C@@H](NC(=O)CCCCCC(=O)N2CCN(Cc3cccc(C#Cc4cc(-c5ccccc5O)nnc4N)c3)CC2)C(C)(C)C)cc1` [Example 61, (2S,4R)-1-[(2S)-2-[[7-[4-[[3-[2-[3-amino-6-(2-hydroxyphenyl)pyridazin-4-yl]ethynyl]phenyl]methyl]piperazin-1-yl]-7-oxo-heptanoyl]amino]-3,3-dimethyl-butanoyl]-4-hydroxy-N-[[4-(4-methylthiazol-5-yl)phenyl]methyl]pyrrolidine-2-carboxamide]: the Emax was 59% and the DC50 is 519 nM.
Taken in the same sequence, the figures for `Cc1ncsc1-c1ccc(CNC(=O)[C@@H]2C[C@@H](O)CN2C(=O)[C@@H](NC(=O)CCCCCCCCC(=O)NCC(COc2cc(-c3ccccc3O)nnc2N)c2ccccc2)C(C)(C)C)cc1` (mixture of isomers) [Example 51, N-[3-[3-amino-6-(2-hydroxyphenyl)pyridazin-4-yl]oxy-2-phenyl-propyl]-N′-[rac-(1S)-2,2-dimethyl-1-[rac-(2S,4R)-4-hydroxy-2-[[4-(4-methylthiazol-5-yl)phenyl]methylcarbamoyl]pyrrolidine-1-carbonyl]propyl]decanediamide] were 48% and 1650 nM.
For `Cc1ncsc1-c1ccc([C@H](C)NC(=O)[C@@H]2C[C@@H](O)CN2C(=O)[C@@H](NC(=O)CCCCCCCCCCCCC(=O)N2CCN(CCOc3cccc(N4CCCC(Oc5cc(-c6ccccc6O)nnc5N)C4)c3)CC2)C(C)(C)C)cc1` (mixture of isomers) [Example 81, rac-(2S,4R)-4-hydroxy-1-[rac-(2S)-2-[[14-[4-[2-[3-[3-[3-amino-6-(2-hydroxyphenyl)pyridazin-4-yl]oxy-1-piperidyl]phenoxy]ethyl]piperazin-1-yl]-14-oxo-tetradecanoyl]amino]-3,3-dimethyl-butanoyl]-N-[rac-(1S)-1-[4-(4-methylthiazol-5-yl)phenyl]ethyl]pyrrolidine-2-carboxamide], the Emax amounted to 34% and the DC50 stood at 504 nM.
The matching figures for `Cc1ncsc1-c1ccc([C@H](C)NC(=O)[C@@H]2C[C@@H](O)CN2C(=O)[C@@H](NC(=O)CCCCCCCCC(=O)N2CCN(Cc3cccc(C(C)Oc4cc(-c5ccccc5O)nnc4N)c3)CC2)C(C)(C)C)cc1` (mixture of isomers) [Example 82, rac-(2S,4R)-4-hydroxy-1-[rac-(2S)-2-[[10-[4-[[3-[l-[3-amino-6-(2-hydroxyphenyl)pyridazin-4-yl]oxyethyl]phenyl]methyl]piperazin-1-yl]-10-oxo-decanoyl]amino]-3,3-dimethyl-butanoyl]-N-[rac-(1S)-1-[4-(4-methylthiazol-5-yl)phenyl]ethyl]pyrrolidine-2-carboxamide]: 62% and 586 nM.
Taken in the same sequence, the figures for `Cc1ncsc1-c1ccc(CNC(=O)[C@@H]2C[C@@H](O)CN2C(=O)[C@@H](NC(=O)CCCCCCCCC(=O)N2CCC(CNC(=O)C3CN(c4cc(-c5ccccc5O)nnc4N)CCN3c3ccccc3)CC2)C(C)(C)C)cc1` (mixture of isomers) [Example 97, 4-[3-amino-6-(2-hydroxyphenyl)pyridazin-4-yl]-N-[[1-[10-oxo-10-[[rac-(1S)-2,2-dimethyl-1-[rac-(2S,4R)-4-hydroxy-2-[[4-(4-methylthiazol-5-yl)phenyl]methylcarbamoyl]pyrrolidine-1-carbonyl]propyl]amino]decanoyl]-4-piperidyl]methyl]-1-phenyl-piperazine-2-carboxamide] were 40% and 1150 nM.
Taken in the same sequence, the figures for `Cc1ncsc1-c1ccc(CNC(=O)[C@@H]2C[C@@H](O)CN2C(=O)C(NC(=O)CCCCCCC(=O)N2CCC3(CC2)CCN(c2cc(-c4ccccc4O)nnc2N)CC3)C(C)(C)C)cc1` (stereo in doubt) [Example 6, (2S,4R)-1-[(2R)-2-[[8-[9-[3-amino-6-(2-hydroxyphenyl)pyridazin-4-yl]-3,9-diazaspiro[5.5]undecan-3-yl]-8-oxo-octanoyl]amino]-3,3-dimethyl-butanoyl]-4-hydroxy-N-[[4-(4-methylthiazol-5-yl)phenyl]methyl]pyrrolidine-2-carboxamide] were 54% and 2910 nM.
With `Cc1ncsc1-c1ccc([C@H](C)NC(=O)[C@@H]2C[C@@H](O)CN2C(=O)[C@@H](NC(=O)CCCCCC(=O)N2CCN(c3ccc(CN4CCCC(Oc5cc(-c6ccccc6O)nnc5N)C4)cc3)CC2)C(C)(C)C)cc1` (mixture of isomers) [Example 40, rac-(2S,4R)-4-hydroxy-1-[rac-(2S)-2-[[7-[4-[4-[[3-[3-amino-6-(2-hydroxyphenyl)pyridazin-4-yl]oxy-1-piperidyl]methyl]phenyl]piperazin-1-yl]-7-oxo-heptanoyl]amino]-3,3-dimethyl-butanoyl]-N-[rac-(1S)-1-[4-(4-methylthiazol-5-yl)phenyl]ethyl]pyrrolidine-2-carboxamide], the Emax was found to be 46% and the DC50 was determined as 349 nM.
Take `Cc1ncsc1-c1ccc([C@H](C)NC(=O)[C@@H]2C[C@@H](O)CN2C(=O)[C@@H](NC(=O)CCCCCCCCCCCCC(=O)N2CCN(c3cccc(N4CCCC(Oc5cc(-c6ccccc6O)nnc5N)C4)c3)CC2)C(C)(C)C)cc1` (mixture of isomers) [Example 93, rac-(2S,4R)-4-hydroxy-1-[rac-(2S)-2-[[14-[4-[3-[3-[3-amino-6-(2-hydroxyphenyl)pyridazin-4-yl]oxy-1-piperidyl]phenyl]piperazin-1-yl]-14-oxo-tetradecanoyl]amino]-3,3-dimethyl-butanoyl]-N-[rac-(1S)-1-[4-(4-methylthiazol-5-yl)phenyl]ethyl]pyrrolidine-2-carboxamide]: the Emax was found to be 55% and the DC50 stood at 579 nM.
Taken in the same sequence, the figures for `Cc1ncsc1-c1ccc([C@H](C)NC(=O)[C@@H]2C[C@@H](O)CN2C(=O)[C@@H](NC(=O)CCCCCC(=O)N(C)CCCN(C)c2ccc(CCOc3cc(-c4ccccc4O)nnc3N)cc2)C(C)(C)C)cc1` (racemic) [Example 26, N′-[3-[4-[2-[3-amino-6-(2-hydroxyphenyl)pyridazin-4-yl]oxyethyl]-N-methyl-anilino]propyl]-N′-methyl-N-[rac-(1S)-2,2-dimethyl-1-[rac-(2S,4R)-4-hydroxy-2-[[rac-(1S)-1-[4-(4-methylthiazol-5-yl)phenyl]ethyl]carbamoyl]pyrrolidine-1-carbonyl]propyl]heptanediamide] were 60% and 1440 nM.
Turning to `Cc1ncsc1-c1ccc([C@H](C)NC(=O)[C@@H]2C[C@@H](O)CN2C(=O)[C@@H](NC(=O)CCC(=O)N2CCOC3(CCN(c4cc(-c5ccccc5O)nnc4N)CC3)C2)C(C)(C)C)cc1` [Example 42, (2S,4R)-1-[(2S)-2-[[4-[9-[3-amino-6-(2-hydroxyphenyl)pyridazin-4-yl]-1-oxa-4,9-diazaspiro[5.5]undecan-4-yl]-4-oxo-butanoyl]amino]-3,3-dimethyl-butanoyl]-4-hydroxy-N-[(1S)-1-[4-(4-methylthiazol-5-yl)phenyl]ethyl]pyrrolidine-2-carboxamide], the Emax came out at 71% and the DC50 worked out at 561 nM.
In the case of `Cc1ncsc1-c1ccc([C@H](C)NC(=O)[C@@H]2C[C@@H](O)CN2C(=O)[C@@H](NC(=O)CCCCCCCCC(=O)N2CCN(Cc3cccc(OC4CN(c5cc(-c6ccccc6O)nnc5N)C4)c3)CC2)C(C)(C)C)cc1` [Example 86, (2S,4R)-1-[(2S)-2-[[10-[4-[[3-[1-[3-amino-6-(2-hydroxyphenyl)pyridazin-4-yl]azetidin-3-yl]oxyphenyl]methyl]piperazin-1-yl]-10-oxo-decanoyl]amino]-3,3-dimethyl-butanoyl]-4-hydroxy-N-[(1S)-1-[4-(4-methylthiazol-5-yl)phenyl]ethyl]pyrrolidine-2-carboxamide], the Emax turned out to be 25% and the DC50 was determined as 223 nM.
